Reference: patent US4618681A, “Aryl substituted 1H-4,5-dihydro-1,2,3-triazoles as anticonvulsants” (priority 1984, dated 1986)
“Also recorded” adds a separate entry of the source. Where two headings read alike, the source gives them in different places.

What was measured:
[1] = mouse, in vivo
Protocol: (§1) All animals were allowed free access to both food (S/L Custom Lab Diet-7) and water, except when they were removed from their cages for the experimental procedure.
(§2) The drugs were administered either orally or intraperitoneally in a volume of 0.01 ml/g body weight in mice and 0.04 ml/10 g in rats. All tests were conducted at the previously determined time of peak drug effect.
(§3) The profile of anticonvulsant activity for each substance was established by five tests: one electrical and four chemical. The electrical test employed was the maximal electroshock seizure pattern test. […] Except for the sc Strych Test, these tests measure the ability of anticonvulsants to afford complete protection against threshold seizures induced by the subcutaneous injection of the CD97 of the convulsant agent.
(§4) All convulsants were administered subcutaneously into a loose fold of skin on the back of the neck in a volume of 0.01 ml/g body weight in mice; Metrazol was injected in a volume of 0.02 ml/10 g body weight in rats. The convulsant drugs were administered at the previously determined time of peak anticonvulsant action of the drug under study. […] Except for strychnine, absence of a five-second episode of clonic spasms (threshold seizure) was taken as protection. In the case of strychnine, complete abolition of the hindleg tonic extension was taken as protection.

[2] = Subcutaneous Metrazol Seizure Threshold Test (sc Met) in rats; assay type: in vivo, rats (male albino, Sprague Dawley); settings: for ED50: Rattus norvegicus, po, read-out: ED50 sc Met
Protocol: as §2, §3, §4

[3] = Time of peak effect (TPE) over several tests in mice
Protocol: as §2

[4] = not given; remark: listed apart in the source
[5] = not given; remark: listed apart in the source
[6] = Time of peak effect (TPE) over several tests in rats; settings: p.o., Compound 9: toxicity, MES and sc Met tests
Protocol: as §2

[7] = design: species or system mice; settings: mouse, in vivo, ip, 1132 mg/kg
Protocol: Consequently, it was necessary to administer the high doses required for the righting reflex and 24-hour lethality tests in mice in double the volume. In view of this fact, additional studies were done to determine the effect of this double volume on the time of peak effect of the test substance. […] […]. Moreover, 1, 3, and 4 of the 8 mice were dead at 20, 40, and 46 hours, respectively. […] Accordingly, additional pharmacokinetic and pharmacodynamic studies will be done in order to reveal mechanisms that may contribute to the long TPE for neurotoxicity and the abnormally low ratio between the minimal-toxic dose and the 24-hour lethal dose.

[8] = not given; remark: listed apart in the source
[9] = Oral absorption in mice (oral/i.p. ratios); assay type: in vivo
From the text: The extent of oral absorption can be determined from the ratio of the oral ED50/i.p. […] In mice the oral TD50/i.p. TD50 and oral ED50/i.p.

[10] = Maximal electroshock seizure (MES) pattern test in rats; assay type: in vivo, rats (male albino, Sprague Dawley)
Protocol: as §1, §2, §3

[11] = in vivo; design: species or system mice
Protocol: (§5) The profile of toxicity for each test drug was established by the following procedures: firstly, the minimal neurotoxic dose (TD50) was determined by the rotorod procedure at the time of peak neurotoxic effect. When a normal mouse is placed on a knurled rod one inch in diameter rotating at a speed of six rpm it can maintain its equilibrium for long periods of time. Neurological deficit is indicated by inability of the mouse to maintain its equilibrium for one minute in each of three trials on this rotating rod. Neurological deficit in rats is indicated by ataxia, loss of placing response and muscle tone. […] These observations also provide preliminary information essential for the subsequent determination of the HD50 and LD50. The HD50 represents the median dose at which 50% of animals lose their righting reflex.

[12] = in vivo; settings: rat, po
Protocol: as §2, §5

[13] = Phase I anticonvulsant screening (MES and scMet tests); settings: in words
[14] = assay type: in vivo; settings: Phase V, mice, i.p.
Protocol: as §3, §4

[15] = Phase III Toxicity Profile in mice i.p. (overt signs of toxicity); assay type: in vivo
From the text: […]. […] […]. […] […].

[16] = in vivo; settings: mouse
Protocol: as §2, §5

[17] = not given; remark: listed apart in the source
[18] = in vivo; settings: mouse, in vivo; for selectivity ratio: mice, i.p.
Protocol: as §5

[19] = Subcutaneous Metrazol Seizure Threshold Test (sc Met) in mice; settings: for ED50: Mus musculus; for effectiveness by the sc Met test: Phase V
Protocol: as §1, §2, §3, §4

[20] = animal or person; settings: Mus musculus, sc, read-out: sc CD97 of bicuculline
Protocol: as §3, §4

[21] = 300 mg/kg, four hours after administration
[22] = mice, i.p., from safety ratio TD3/ED97

## Clc1ccc(N2N=NCC2c2ccncc2)cc1 (stereo not shown) [Compound 9, 1-(p-Chlorophenyl)-5-(4-pyridyl)-Δ^2-1,2,3-triazoline]
[1]
  oral ED50/i.p. ED50, sc Met: 3.50
[1]; po
  P.I. by the scMet test: 4.62
[1]; sc
  P.I. derived from the sc Met test: high
[21]
  activity by the MES test: ineffective by the MES test (although the tonic extension was slow)
mice, i.p.
  ED50 MES: 257.42 mg/kg
  Protective Index (P.I.) = TD50/ED50, MES: 4.40
  Time of Test / time of peak effect (TPE), MES: 1/2
[22]
  mice protected, MES, nontoxic doses: 97%
mice, p.o.
  ED50 MES: 290.72 mg/kg
  potency relative to phenobarbital, MES: 1/15
  potency relative to phenytoin, MES: 1/32
mice, p.o., MES
  97% protection in nontoxic doses, oral: the same level of protection is obtained only in mice subjected to the MES test
mouse, in vivo
  oral ED50/i.p. ED50, MES: 1.13
  safety ratio TD3/ED97, MES: 1.13
mouse, in vivo, po
  P.I. by the MES test: 2.42
Nontoxic doses
  profile of anticonvulsant activity, electroshock: ability to modify maximal electroshock seizure pattern
[2]; rats, p.o.
  ED50: 278 mg/kg
  97% protection in nontoxic doses, sc Met: do not provide 97% protection
[2]; oral administration
  anticonvulsant potency by sc Met, rats compared with mice: no significant difference in the anticonvulsant potency
[3]; p.o.
  TPE by the anticonvulsant tests: one-half
[3]; p.o. vs i.p.
  TPE after oral compared with intraperitoneal administration: significantly different from that obtained after intraperitoneal administration
[4]; rat, in vivo, po
  neurotoxicity, rats compared with mice: significantly more neurotoxic in rats than it is in mice
[4]; rats, p.o.
  toxicity relative to phenobarbital: one-fifth to one-sixth
[5]; mouse, in vivo, ip
  TPE (rotorod): 12 and 20
[5]; mouse, in vivo, po
  TPE by the rotorod test: 24 h
[5]; mouse, in vivo, po, 600 mg/kg
  deaths: 1 of 8
[5]; mouse, in vivo, po, 700 mg/kg
  deaths (of 8): 6
[5]; mouse, in vivo, po, 800 mg/kg
  deaths: 1 of 8
[5]; mouse, in vivo, po, 1000 mg/kg
  deaths: 4 of 8
[6]
  TPE: six
[7]
  gross examination of the peritoneal cavity: an unevacuated stomach that was approximately three times normal size; an empty, flaccid small intestine; and a vermiform appendix markedly enlarged from flatus
[8]; Phase V, mice, i.p.
  P.I. by the sc Pic test compared with phenobarbital, ethosuximide and valproate: compares favorably with those for phenobarbital, ethosuximide, and valproate
  effectiveness by the sc Pic test: lesser effectiveness by the sc Pic test
[8]; in words
  selectivity (slope of regression line), sc Pic test: lack of selectivity (flat regression lines)
[9]
  absorption after oral administration: adequately absorbed in mice after oral administration
[10]; Rattus norvegicus, po, rats
  ED50: 266 mg/kg
[10]; oral administration
  anticonvulsant potency by MES, rats compared with mice: no significant difference in the anticonvulsant potency
[10]; rats, p.o.
  97% protection in nontoxic doses, MES: do not provide 97% protection
[11]; mouse, in vivo, ip
  Slope, regression line, HD50 (righting reflex): 4.27
  TD50: 2050 mg/kg
  Time of Test / time of peak toxicity, righting reflex: 24 h
[12]
  TD50: 394 mg/kg
[13]
  anticonvulsant potency: most potent
[14]
  effectiveness by the sc Strych test: not effective against sc Strych; also recorded: ineffective after i.p. administration in mice by the sc Strych test
[15]; mice, i.p., 1TD50, 2TD50's and 4TD50's
  toxicity profile: decreased motor activity, ataxia, decreased respiration and cyanosis
[15]; mice, i.p., 2TD50's
  toxicity at the end of 24 hours: One of two animals given 2TD50's was still ataxic and cyanotic at the end of 24 hours
[15]; mice, i.p., 4TD50's
  dead 24 hours after drug administration: Both mice given 4TD50's of Compound 9 were dead 24 hours after drug administration
[15]; mouse, in vivo, ip
  rotorod toxicity: one of two animals given 4TD50's displayed rotorod toxicity
[16]
  selectivity ratio: 0.62
[16]; ip
  TD50: 1130 mg/kg
[16]; po
  TD50: 705 mg/kg
[17]; Phase V, mice, i.p.
  P.I. against sc Bic, times higher than that for phenobarbital: fifty
  effectiveness by the sc Bic test: effective against sc Met, sc Bic, and sc Pic in nontoxic doses
[17]; in words
  P.I. derived from the sc Bic test: high
[18]
  selectivity (slope of regression line), 24-hour lethality: lack of selectivity (flat regression lines)
[18]; ip
  margin between the minimal toxic dose and the 24-hour lethal dose: probably not satisfactory
[18]; ip, 24-hour LD50, rotorod TD50, read-out: Ratio LD50/TD50
  selectivity ratio: 1.88
[18]; ip, 24-hour LD50, read-out: Ratio LD50/HD50
  selectivity ratio: 1.04
[18]; ip, read-out: LD50 (lethality)
  LD50 at 24 h: 2130 mg/kg
[19]; [21]
  anti-Metrazol activity: anti-Metrazol activity was present
[19]; ip, read-out: ED50 sc Met
  ED50: 43.5 mg/kg
[19]; po, read-out: ED50 scMet
  ED50: 153 mg/kg
[19]; mice, i.p.
  effectiveness by the sc Met test: effective against sc Met, sc Bic, and sc Pic in nontoxic doses
  Protective Index (P.I.) = TD50/ED50, sc Met: 26.02
  Time of Test / time of peak effect (TPE), sc Met: 1/2
[19]; mice
  safety ratio TD3/ED97, sc Met: 3.44
[19]; [22]
  mice protected, sc Met, nontoxic doses: 97%
[19]; mice, in words
  24-hour LD50/ED50 safety ratio by the sc Met test: high
[19]; nontoxic doses
  profile of anticonvulsant activity, Metrazol: elevate the Metrazol seizure threshold in nontoxic doses

## CCC1(c2ccccc2)C(=O)NC(=O)NC1=O [Phenobarbital, phenobarbital]
mice, i.p.
  ED50 MES: 21.78 mg/kg
  Time of Test / time of peak effect (TPE), MES: 1 h
mice, p.o.
  ED50 MES: 20.09 mg/kg
[2]
  ED50: 11.6 mg/kg
[6]
  TPE: five
[8]; Phase V, mice, i.p.
  effectiveness by the sc Pic test: effective against sc Met, sc Bic, and sc Pic in nontoxic doses
[11]; mice, i.p.
  Slope, regression line, HD50 (righting reflex): 8.41
[14]
  effectiveness by the sc Strych test: had to be given in toxic doses in order to protect; also recorded: effective in toxic doses
[17]; Phase V, mice, i.p.
  effectiveness by the sc Bic test: effective against sc Met, sc Bic, and sc Pic in nontoxic doses
[19]; ip, read-out: ED50 sc Met
  ED50: 13.2 mg/kg
[19]; po, read-out: ED50 scMet
  ED50: 12.6 mg/kg
[19]; mice, i.p.
  Time of Test / time of peak effect (TPE), sc Met: 1 h

## O=C1NC(=O)C(c2ccccc2)(c2ccccc2)N1 [Phenytoin, phenytoin]
[3]; i.p.
  TPE by all tests: 2 h
[5]; mice, i.p.
  Time of Test / time of peak effect (TPE), Rotorod: 2 h
[8]; Phase V, mice, i.p.
  effectiveness by the sc Pic test: ineffective against Metrazol, bicuculline, and picrotoxin
[11]; mice, i.p.
  Slope, regression line, HD50 (righting reflex): 14.03
[11]; mouse, in vivo, ip
  Time of Test / time of peak toxicity, righting reflex: 12 h
[14]
  animals protected, sc Strych test: 50%
[17]; Phase V, mice, i.p.
  effectiveness by the sc Bic test: ineffective against Metrazol, bicuculline, and picrotoxin
[19]; mice, i.p.
  effectiveness by the sc Met test: ineffective against Metrazol, bicuculline, and picrotoxin
[19]; mice, i.p., listed as phenytion
  ED50 sc Met: did not protect against subcutaneous Metrazol seizures

## CN1CCc2cc3c(cc2[C@H]1[C@@H]1OC(=O)c2c1ccc1c2OCO1)OCO3 [bicuculline]
[20]
  ED97: 2.7 mg/kg
